Legend:
TE-8 cells [1] = assay: Cell growth inhibitory activity, TE-8 cells (Test Example 3); format: cell-based; settings: Homo sapiens, 72 h, cultured for 3 days, CellTiter-Glo
Outline: (§1)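 LK2 and TE-8 […] cells in RPMI 1640 with 10% FBS exposed to 10-point 4-fold dilutions (10 mM to 38 nM, stock series) for 3 days. ATP luminescence (CellTiter-Glo 2.0) at day 0 and day 3 gave survival as (T3−C0)/(C3−C0)×100; GI50 from semilog plot.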

CREBBP = CREBBP (Homo sapiens, UniProt Q92793); assay: Histone acetyltransferase inhibitory activity against CREBBP (Test Example 1); format: biochemical; settings: 125 ng/mL CREBBP, 2 μM Acetyl-CoA, 100 nM Histone H4(1-25)-GSGSK (Biotin), 28° C. for 1 hour
Sequence of CREBBP (Q92793 whole entry): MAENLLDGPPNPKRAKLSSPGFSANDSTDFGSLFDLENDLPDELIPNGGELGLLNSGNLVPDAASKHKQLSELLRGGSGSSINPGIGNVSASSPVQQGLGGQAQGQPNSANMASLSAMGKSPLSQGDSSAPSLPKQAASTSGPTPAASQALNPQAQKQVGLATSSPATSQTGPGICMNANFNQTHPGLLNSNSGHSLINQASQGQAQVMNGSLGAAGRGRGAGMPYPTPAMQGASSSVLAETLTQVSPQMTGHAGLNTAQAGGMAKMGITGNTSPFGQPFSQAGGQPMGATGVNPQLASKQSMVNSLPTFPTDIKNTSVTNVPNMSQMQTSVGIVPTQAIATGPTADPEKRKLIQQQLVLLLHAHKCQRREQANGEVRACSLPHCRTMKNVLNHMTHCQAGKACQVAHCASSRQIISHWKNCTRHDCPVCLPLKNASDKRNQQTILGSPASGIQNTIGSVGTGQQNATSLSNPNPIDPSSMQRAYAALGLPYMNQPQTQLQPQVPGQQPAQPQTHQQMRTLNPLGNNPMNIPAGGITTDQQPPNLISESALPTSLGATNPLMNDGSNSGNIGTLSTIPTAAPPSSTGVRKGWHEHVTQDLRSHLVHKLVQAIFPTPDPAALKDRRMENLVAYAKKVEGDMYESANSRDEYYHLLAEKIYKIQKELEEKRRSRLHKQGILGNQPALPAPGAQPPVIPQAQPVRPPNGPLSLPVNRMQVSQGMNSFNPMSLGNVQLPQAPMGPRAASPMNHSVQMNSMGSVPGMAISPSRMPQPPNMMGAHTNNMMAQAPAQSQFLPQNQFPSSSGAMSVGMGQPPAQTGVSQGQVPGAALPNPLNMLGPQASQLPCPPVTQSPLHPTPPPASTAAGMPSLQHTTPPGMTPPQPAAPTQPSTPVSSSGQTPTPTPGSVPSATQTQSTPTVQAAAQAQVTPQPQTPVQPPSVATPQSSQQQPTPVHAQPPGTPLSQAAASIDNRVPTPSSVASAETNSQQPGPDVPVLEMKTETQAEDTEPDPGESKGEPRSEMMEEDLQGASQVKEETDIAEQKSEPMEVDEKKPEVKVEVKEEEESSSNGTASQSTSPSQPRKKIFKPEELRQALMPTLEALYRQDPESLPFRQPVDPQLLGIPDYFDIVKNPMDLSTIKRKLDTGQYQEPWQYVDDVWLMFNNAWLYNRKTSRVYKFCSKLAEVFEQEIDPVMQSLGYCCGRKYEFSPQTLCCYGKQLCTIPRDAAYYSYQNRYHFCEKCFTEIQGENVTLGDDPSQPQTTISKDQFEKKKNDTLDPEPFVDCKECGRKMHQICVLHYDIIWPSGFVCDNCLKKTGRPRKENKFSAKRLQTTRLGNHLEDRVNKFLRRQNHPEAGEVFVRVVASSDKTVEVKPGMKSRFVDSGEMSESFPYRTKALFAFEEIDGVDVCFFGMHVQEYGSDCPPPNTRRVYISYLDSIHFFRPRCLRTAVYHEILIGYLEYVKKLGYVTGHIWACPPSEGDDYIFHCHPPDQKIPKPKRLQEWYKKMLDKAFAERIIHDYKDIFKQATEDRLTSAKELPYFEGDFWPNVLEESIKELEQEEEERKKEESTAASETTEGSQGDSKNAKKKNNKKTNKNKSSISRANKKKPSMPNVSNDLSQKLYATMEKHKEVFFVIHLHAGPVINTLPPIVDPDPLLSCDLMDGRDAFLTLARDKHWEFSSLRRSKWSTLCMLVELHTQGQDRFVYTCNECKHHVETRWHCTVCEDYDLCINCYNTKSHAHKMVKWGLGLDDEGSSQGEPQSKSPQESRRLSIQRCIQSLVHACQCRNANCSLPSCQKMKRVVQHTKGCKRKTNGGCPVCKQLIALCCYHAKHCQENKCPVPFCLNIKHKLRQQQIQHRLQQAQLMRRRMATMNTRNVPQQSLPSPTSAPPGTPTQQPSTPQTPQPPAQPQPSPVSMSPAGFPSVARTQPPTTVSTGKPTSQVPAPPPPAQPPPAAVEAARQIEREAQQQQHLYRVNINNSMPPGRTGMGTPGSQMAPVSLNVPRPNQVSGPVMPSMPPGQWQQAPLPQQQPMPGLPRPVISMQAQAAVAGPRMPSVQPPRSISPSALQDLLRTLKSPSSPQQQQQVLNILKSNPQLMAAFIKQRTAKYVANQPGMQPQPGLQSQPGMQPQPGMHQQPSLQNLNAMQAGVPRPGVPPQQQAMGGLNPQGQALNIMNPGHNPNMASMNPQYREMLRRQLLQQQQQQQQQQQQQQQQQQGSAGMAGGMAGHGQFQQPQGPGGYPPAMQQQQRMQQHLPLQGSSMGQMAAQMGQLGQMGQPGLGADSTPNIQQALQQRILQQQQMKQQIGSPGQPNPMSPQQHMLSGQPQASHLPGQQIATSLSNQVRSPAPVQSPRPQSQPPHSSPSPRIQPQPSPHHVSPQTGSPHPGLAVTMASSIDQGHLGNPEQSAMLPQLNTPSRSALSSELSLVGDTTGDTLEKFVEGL
Outline: (§2)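 Enzyme (50 ng/mL EP300 or 125 ng/mL CREBBP) incubated 1 h at 28° C with 2 μM acetyl-CoA, 100 nM biotinylated histone H4(1-25) peptide and 10 to 0.0006 μM compound in pH 8.0 Tris buffer with 330 nM trichostatin A, 1% DMSO. Reaction stopped with Lys-CoA; acetylation read by TR-FRET (Eu-anti pan-Ac/Sta-ULight) after overnight room-temperature incubation.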

EP300 = EP300 (Homo sapiens, UniProt Q09472); assay: Histone acetyltransferase inhibitory activity against EP300 (Test Example 1); format: biochemical; settings: 50 ng/mL EP300, 2 μM Acetyl-CoA, 100 nM Histone H4(1-25)-GSGSK (Biotin), 28° C. for 1 hour
Sequence of EP300 (Q09472 whole entry): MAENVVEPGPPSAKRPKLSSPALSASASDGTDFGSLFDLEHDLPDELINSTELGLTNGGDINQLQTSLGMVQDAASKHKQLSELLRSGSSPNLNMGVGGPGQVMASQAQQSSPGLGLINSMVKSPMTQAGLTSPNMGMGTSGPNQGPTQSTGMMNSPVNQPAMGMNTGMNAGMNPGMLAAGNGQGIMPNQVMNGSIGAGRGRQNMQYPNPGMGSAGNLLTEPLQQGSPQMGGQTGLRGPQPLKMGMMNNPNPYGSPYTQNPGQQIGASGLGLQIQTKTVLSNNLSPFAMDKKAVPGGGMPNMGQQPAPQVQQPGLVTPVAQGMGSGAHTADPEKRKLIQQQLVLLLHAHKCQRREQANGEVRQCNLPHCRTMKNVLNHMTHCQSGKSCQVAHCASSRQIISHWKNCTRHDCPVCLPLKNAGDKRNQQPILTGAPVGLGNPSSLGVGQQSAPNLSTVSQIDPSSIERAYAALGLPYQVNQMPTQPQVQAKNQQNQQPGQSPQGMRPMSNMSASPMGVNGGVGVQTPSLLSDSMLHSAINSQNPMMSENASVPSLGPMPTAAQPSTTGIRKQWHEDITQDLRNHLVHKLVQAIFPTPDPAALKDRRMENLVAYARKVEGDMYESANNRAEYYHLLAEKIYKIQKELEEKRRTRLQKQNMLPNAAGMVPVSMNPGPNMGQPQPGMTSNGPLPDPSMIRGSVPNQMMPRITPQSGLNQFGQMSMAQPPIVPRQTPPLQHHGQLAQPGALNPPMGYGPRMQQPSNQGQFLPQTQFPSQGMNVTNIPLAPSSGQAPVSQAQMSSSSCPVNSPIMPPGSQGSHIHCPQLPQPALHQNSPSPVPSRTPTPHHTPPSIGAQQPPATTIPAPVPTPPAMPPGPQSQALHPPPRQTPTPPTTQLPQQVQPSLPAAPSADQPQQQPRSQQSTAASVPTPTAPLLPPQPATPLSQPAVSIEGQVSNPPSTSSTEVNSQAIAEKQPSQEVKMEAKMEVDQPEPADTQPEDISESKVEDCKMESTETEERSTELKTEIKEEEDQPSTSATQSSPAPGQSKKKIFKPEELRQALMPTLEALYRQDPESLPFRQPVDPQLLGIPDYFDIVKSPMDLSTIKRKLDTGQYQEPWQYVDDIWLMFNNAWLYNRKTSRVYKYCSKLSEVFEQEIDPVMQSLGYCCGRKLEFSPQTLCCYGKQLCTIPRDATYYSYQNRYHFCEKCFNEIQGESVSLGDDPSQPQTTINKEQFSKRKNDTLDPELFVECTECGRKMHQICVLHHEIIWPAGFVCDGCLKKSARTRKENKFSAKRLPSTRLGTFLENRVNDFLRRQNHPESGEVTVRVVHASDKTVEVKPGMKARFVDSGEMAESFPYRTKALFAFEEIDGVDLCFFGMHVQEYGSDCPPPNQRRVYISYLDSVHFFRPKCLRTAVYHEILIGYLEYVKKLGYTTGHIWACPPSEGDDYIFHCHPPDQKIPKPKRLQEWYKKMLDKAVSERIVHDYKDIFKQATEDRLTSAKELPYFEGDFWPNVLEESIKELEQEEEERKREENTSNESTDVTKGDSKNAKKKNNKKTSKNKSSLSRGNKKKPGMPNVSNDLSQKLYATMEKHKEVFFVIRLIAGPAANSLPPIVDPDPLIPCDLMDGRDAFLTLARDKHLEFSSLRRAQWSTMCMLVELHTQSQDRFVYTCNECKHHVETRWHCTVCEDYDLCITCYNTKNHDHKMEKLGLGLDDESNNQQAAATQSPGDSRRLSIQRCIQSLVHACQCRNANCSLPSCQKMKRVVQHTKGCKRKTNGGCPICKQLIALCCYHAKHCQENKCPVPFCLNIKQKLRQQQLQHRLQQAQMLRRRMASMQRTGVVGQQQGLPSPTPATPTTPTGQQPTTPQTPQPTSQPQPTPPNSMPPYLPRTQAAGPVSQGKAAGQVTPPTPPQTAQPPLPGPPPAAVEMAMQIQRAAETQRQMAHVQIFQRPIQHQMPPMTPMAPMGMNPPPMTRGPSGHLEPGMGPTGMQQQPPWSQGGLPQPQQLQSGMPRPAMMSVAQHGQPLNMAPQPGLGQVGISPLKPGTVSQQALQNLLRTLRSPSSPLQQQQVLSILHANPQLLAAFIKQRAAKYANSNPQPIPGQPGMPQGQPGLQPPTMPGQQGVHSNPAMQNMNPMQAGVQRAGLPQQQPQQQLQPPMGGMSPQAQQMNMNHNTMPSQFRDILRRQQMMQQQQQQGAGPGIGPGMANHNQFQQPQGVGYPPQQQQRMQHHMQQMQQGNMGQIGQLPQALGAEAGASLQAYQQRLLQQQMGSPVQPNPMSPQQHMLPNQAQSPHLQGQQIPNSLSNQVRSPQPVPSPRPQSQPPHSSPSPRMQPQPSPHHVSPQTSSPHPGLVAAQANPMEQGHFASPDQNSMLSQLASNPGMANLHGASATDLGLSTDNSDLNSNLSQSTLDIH
Outline: as §2

H3K27Ac = assay: Intracellular H3K27Ac inhibitory activity in LK2 cells (Test Example 2); format: cell-based; settings: Homo sapiens, LK-2, cultured with compound for 3 hours, read-out: Test Example 2 H3K27Ac Inhibition (LK2) IC50
Outline: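 Human squamous lung cancer LK2 cells (40000/well) cultured overnight at 37 °C, 5% CO2 before treatment. After paraformaldehyde fixation, peroxide quench and blocking, H3K27 acetylation detected with anti-acetyl-H3K27 rabbit mAb (4 °C overnight) and HRP secondary; chemiluminescent read-out.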

LK2 cells [2] = assay: Cell growth inhibitory activity, LK2 cells (Test Example 3); format: cell-based; settings: Homo sapiens, LK-2, 72 h, cultured for 3 days, CellTiter-Glo
Outline: as §1

LK2 cells [3] = assay: Antitumor activity in LK2 cell subcutaneous transplant model (Test Example 4); format: in vivo, female BALB/c-nu/nu mice; settings: dose 6.25 mg/kg/day, test end day
Source text: [Test Example 4] Evaluation of Antitumor Activity in LK2 Cell Subcutaneous Transplant Model
LK2 cells were transplanted at a rate of 2×10^6 cells/head subcutaneously into a right abdominal site of each of female BALB/c-nu/nu mice, and 7 days after, the mice were grouped into groups each consisting of 5 mice based on an estimated tumor volume (longer diameter×shorter diameter×shorter diameter/2) and the weight. The LK2 cells were purchased from Human Science Research Resources Bank. […] The estimated tumor volume of each individual was measured from the day of grouping until 18 days after the transplantation (test end day).
(§3) The antitumor activity in LK2 cell subcutaneous transplant model of Test Example 4, the antitumor activity in TE-8 cell subcutaneous transplant model of Test Example 5, the antitumor activity in KARPASS-422 cell subcutaneous transplant model of Test Example 6, the antitumor activity in NMC10-15 cell subcutaneous transplant model of Test Example 7, and the antitumor activity in VCaP cell subcutaneous transplant model of Test Example 8 were respectively calculated on the end dates of the tests in accordance with the following equation: Tumor Growth Inhibition Rate %=(1−TVCt/TVCc)×100 TVC=(individual tumor volume on test end day)−(individual tumor volume on grouping day)
TVCt: average of TVC values of administration group […]

NMC10-15 cells = assay: Antitumor activity in NMC10-15 cell subcutaneous transplant model (Test Example 7); format: in vivo, female BALB/c-nu/nu mice; settings: NMC10-15 subcutaneous transplant model, oral, QD×9, 15 days after transplantation
Source text: [Test Example 7] Evaluation of Antitumor Activity in NMC10-15 Cell Subcutaneous Transplant Model
NMC10-15 cells derived from human nut midline carcinoma were transplanted at a rate of 5×10^6 cells/head subcutaneously into a right abdominal site of each of female BALB/c-nu/nu mice, and 6 days after, the mice were grouped into groups each consisting of 5 mice based on an estimated tumor volume (longer diameter×shorter diameter×shorter diameter/2) and the weight. […] The estimated tumor volume of each individual was measured from the day of grouping until 15 days after the transplantation (test end day).
as §3, with “grouping day) […]” for “grouping day)”

VCaP cells = assay: Antitumor activity in VCaP cell subcutaneous transplant model (Test Example 8); format: in vivo, male NSG mice; settings: oral
Source text: [Test Example 8] Evaluation of Antitumor Activity in VCaP Cell Subcutaneous Transplant Model
VCaP cells derived from human prostate cancer were transplanted at a rate of 1×10^7 cells/head subcutaneously into a right abdominal site of each of male NSG mice, and 8 days after, the mice were grouped into groups each consisting of 5 mice based on an estimated tumor volume (longer diameter×shorter diameter×shorter diameter/2) and the weight. The VCaP cells were purchased from American Type Culture Collection. […] The estimated tumor volume of each individual was measured from the day of grouping until 24 days after the transplantation (test end day).
as §3, with “grouping day) […]” for “grouping day)”

TE-8 cells [4] = assay: Antitumor activity in TE-8 cell subcutaneous transplant model (Test Example 5); format: in vivo, female BALB/c-nu/nu mice; settings: TE-8 subcutaneous transplant model, dose 2 mg/kg/day, test end day
Source text: [Test Example 5] Evaluation of Antitumor Activity in TE-8 Cell Subcutaneous Transplant Model
TE-8 cells were transplanted at a rate of 1×10^7 cells/head subcutaneously into a right abdominal site of each of female BALB/c-nu/nu mice, and 9 days after (Example 73) or 10 days after (Examples 35 and 84), the mice were grouped into groups each consisting of 5 mice based on an estimated tumor volume (longer diameter×shorter diameter×shorter diameter/2) and the weight. The TE-8 cells were purchased from Riken Cell Bank. The female BALB/c-nu/nu mice were purchased from Charles River Laboratories Japan, Inc.
(§4) From the day of grouping, the compound of Example 73 at a dose set to 2 mg/kg/day was orally administered in accordance with a schedule of twice a day continuously for 9 days (BID x 9). The estimated tumor volume of each individual was measured from the day of grouping until 18 days after the transplantation (test end day).
as §4, with “Besides, from” for “From”, “[…]” for “73”, “11” for “9”, “11).” for “9).”, “21” for “18”
as §3
TVCt: average of TVC values of administration group
TVCc: average of TVC values of non-administration group

Compound | GI50 (TE-8 cells [1]) [nM] | IC50 (CREBBP) [nM] | IC50 (EP300) [nM] | IC50 (H3K27Ac) [nM] | GI50 (LK2 cells [2]) [nM] | Tumor Growth Inhibition Rate (LK2 cells [3]) [%] | Tumor Growth Inhibition Rate (NMC10-15 cells; dose 3 mg/kg/day) [%] | Tumor Growth Inhibition Rate (VCaP cells; dose 6 mg/kg/day, QD×16, 24 days after transplantation) [%] | Tumor Growth Inhibition Rate (TE-8 cells [4]) [%] | Tumor Growth Inhibition Rate (NMC10-15 cells; dose 0.3 mg/kg/day) [%] | Tumor Growth Inhibition Rate (VCaP cells; dose 10 mg/kg/day, QOD×8, 24 days after transplantation) [%]
COc1ccc(C2(C(=O)N3C[C@H](F)C[C@@H]3C(=O)Nc3ccc4[nH]ncc4n3)CCCCC2)cc1F [Example 37, (4R)-4-Fluoro-1-{[1-(3-fluoro-4-methoxyphenyl)cyclohexyl]carbonyl}-N-1H-pyrazolo[4,3-b]pyridin-5-yl-D-prolinamide] | 113 | 18 | 14 | 16 | 85.9 | 42 |  |  |  |  | 
COc1ccc(C2(C(=O)N3C[C@H](F)C[C@@H]3C(=O)Nc3ccc4[nH]ncc4n3)CCC(F)(F)CC2)cc1 [Example 60, (4R)-1-{[4,4-Difluoro-1-(4-methoxyphenyl)cyclohexyl]carbonyl}-4-fluoro-N-1H-pyrazolo[4,3-b]pyridin-5-yl-D-prolinamide] | 311 | 67 | 28 | 54 | 211 |  | 99 | 89 |  |  | 
COc1ccc(C2(C(=O)N3C[C@H](F)C[C@@H]3C(=O)Nc3ccc4c(n3)CC(=O)N4)CCCCC2)cc1 [Example 66, (4R)-4-Fluoro-1-{[1-(4-methoxyphenyl)cyclohexyl]carbonyl}-N-(2-oxo-2,3-dihydro-1H-pyrrolo[3,2-b]pyridin-5-yl)-D-prolinamide] | 847 | 73 | 35 | 17 | 548 |  |  |  | 54 |  | 
COc1ccc(C2(C(=O)N3C[C@H](F)C[C@@H]3C(=O)Nc3ccc4c(n3)CC(=O)N4)CCC(F)(F)CC2)cc1 [Example 73, (4R)-1-{[4,4-Difluoro-1-(4-methoxyphenyl)cyclohexyl]carbonyl}-4-fluoro-N-(2-oxo-2,3-dihydro-1H-pyrrolo[3,2-b]pyridin-5-yl)-D-prolinamide] | 620 | 148 | 52 | 70 | 610 |  |  |  | 65 |  | 
COc1ccc(C2(C(=O)N3C[C@H](F)C[C@@H]3C(=O)Nc3ccc4[nH]ncc4n3)CCOCC2)cc1 [Example 45, (4R)-4-Fluoro-1-{[4-(4-methoxyphenyl)tetrahydro-2H-pyran-4-yl]carbonyl}-N-1H-pyrazolo[4,3-b]pyridin-5-yl-D-prolinamide] | 1350 | 128 | 31 | 101 | 733 |  |  |  |  |  | 
CC(C)(C(=O)N1C[C@H](F)C[C@@H]1C(=O)Nc1ccc2[nH]ncc2n1)c1ccc(OC(F)(F)F)cc1 [Example 58] | 1280 | 75 | 60 | 173 | 699 |  |  |  |  |  | 
COc1ccc(C2(C(=O)N3C[C@H](F)C[C@@H]3C(=O)Nc3ccc4[nH]ncc4c3F)CCC(F)(F)CC2)cc1 [Example 100] | 1370 | 95 | 67 | 243 | 660 |  |  |  |  |  | 
CS(=O)(=O)Nc1ccc(C2(C(=O)N3C[C@H](F)C[C@@H]3C(=O)Nc3ccc4[nH]ncc4n3)CCC(F)(F)CC2)cc1 [Example 102, (4R)-1-[(4,4-Difluoro-1-{4-[(methylsulfonyl)amino]phenyl}cyclohexyl)carbonyl]-4-fluoro-N-1H-pyrazolo[4,3-b]pyridin-5-yl-D-prolinamide] | 439 | 84 | 40 | 126 | 323 |  |  |  |  |  | 
O=C(Nc1ccc2[nH]ncc2n1)[C@H]1C[C@@H](F)CN1C(=O)C1(c2ccc(OC(F)F)cc2)CCC(F)(F)CC1 [Example 84, (4R)-1-({1-[4-(Difluoromethoxy)phenyl]-4,4-difluorocyclohexyl}carbonyl)-4-fluoro-N-1H-pyrazolo[4,3-b]pyridin-5-yl-D-prolinamide] | 152 | 39 | 26 | 22 | 97.2 |  |  |  |  | 66 | 77
COCc1cc2nc(NC(=O)[C@H]3C[C@@H](F)CN3C(=O)C3(c4ccc(OC(F)F)cc4)CCC(F)(F)CC3)ccc2[nH]1 [Example 105, (4R)-1-({1-[4-(Difluoromethoxy)phenyl]-4,4-difluorocyclohexyl}carbonyl)-4-fluoro-N-[2-(methoxymethyl)-1H-pyrrolo[3,2-b]pyridin-5-yl]-D-prolinamide] | 989 | 78 | 50 | 192 | 753 |  |  |  |  |  | 

Source: US11274100B2, “EP300/CREBBP inhibitor” (Daiichi Sankyo Company, Limited, priority 2017, dated 2022)
